This note sets out measurements from patent US20090054403A1, “Treatment of Post-Traumatic Stress Disorder” (priority 2007, published 2009).

The structures appear in SMILES notation. Bounds are passed on as bounds.

Series [1] deals with dopamine/norepinephrine ratio. As to the kind of experiment: Dose response of tissue dopamine/norepinephrine ratio 6 hours after a single oral dose. The class given is in vivo, Sprague-Dawley rats.
Series [2] concerns mean arterial pressure, renal blood flow. As to the kind of experiment: Arterial pressure and renal function in anesthetized SHR after iv dosing. The class given is in vivo. The note with it: 3.0 mg/kg i.v.
A further series concerns locomotor activity. As to the kind of experiment: Infrared activity monitoring (IRAM) in MPTP-lesioned monkeys. The series is classed as in vivo, squirrel monkeys (Saimiri sciureus). How it is done: Drug nepicastat or water (as placebo) was administered for 12 days following a minimum 2 day washout after L-Dopa dosing. Drug was administered twice daily at 10 am and 2 pm by oral gavage. Behavior was rated by IRAM and CRS. The CRS was conducted in the morning, 60 to 90 minutes after the 10 am dose of nepicastat on the last 5 days of drug treatment. Raters (one to three individuals) were blinded to the different treatment groups. IRAM assessments were preformed for 90 minutes immediately following drug administration at 2 pm on the last 5 days of drug treatment.
IRAM Locomotor activity was monitored every 10 minutes for a minimum of 90 minutes following each drug level. A higher rating is considered a faster (less parkinsonian) animal.
Statistical analysis consisted of descriptive statistics and graphing the mean of each 10 minutes data blocks of placebo and experimental drug at 1, 4, and 10 mg/kg. The graph was then examined to detect any trends. Further statistical analysis was not performed since no difference was determined from graphical analysis.

In series [3] the target is acyl CoA-cholesterol acyl transferase. As to the kind of experiment: Selected enzyme assay. The series is classed as biochemical. The method, then: (§1) The activity of nepicastat at twelve selected enzymes and receptors was determined using established assays. Details of individual receptor radioligand binding assays can be found in Wong et al (1993). Binding data were analyzed by iterative curve-fitting to a four parameter logistic equation. Ki values were calculated from IC50 values using the Cheng-Prusoff equation. Enzyme inhibitory activity was expressed as IC50 (concentration required to produce 50% inhibition of enzyme activity). Male SHRs (15-16 weeks old, Charles River, Wilmington, Mass., USA) were used in the study. On the day of the study, animals were weighed and randomly assigned to be dosed with either vehicle (control) or the appropriate dose of nepicastat (3, 10, 30 or 100 mg.kg^−1, po) or (R)-5-Aminomethyl-1-(5,7-difluoro-1,2,3,4-tetrahydronaphth-2-yl)-2,3-dihydro-2-thioxo-1H-imidazole hydrochloride (30 mg.kg^−1, po) three consecutive times, twelve hours apart. At six hours after the third dose, the rats were anaesthetized with halothane, decapitated and tissues (cerebral cortex, mesenteric artery and left ventricle) were rapidly harvested, weighed, placed in iced perchloric acid (0.4 M), frozen in liquid nitrogen and stored at −70° C. until subsequent analysis. To quantify noradrenaline and dopamine concentrations, tissues were homogenized by brief sonication and centrifuged at 13,000 rpm for 30 minutes at 4° C. The supernatant, spiked with 3,4-dihydroxybenzylamine (internal standard), was assayed for noradrenaline and dopamine by HPLC using electrochemical detection.
(§2) In vitro assay of selected enzymes and neurotransmitter receptors. The activity of 2a at eleven different enzymes was determined using established assays (PanLabs Inc, Foster City, Calif.). The affinity of 2a for thirteen selected receptors was determined by radioligand binding assays using standard filtration techniques and membrane preparations. Binding data were analyzed by iterative curve fitting to a four parameter logistic equation. Ki values were calculated using the Cheng-Prusoff equation.

For the next series, the target named is protein kinase C. As to the kind of experiment: Selected enzyme assay. Conditions: b560 prints protein kinase (non-selective). The class given is biochemical. The method, then:
as §1, §2

Another series deals with T1, neutral endopeptidase (Homo sapiens, UniProt P08473).
T1 construct: PanLabs Inc (assay provider)
T1 sequence (P08473 whole entry, species assumed): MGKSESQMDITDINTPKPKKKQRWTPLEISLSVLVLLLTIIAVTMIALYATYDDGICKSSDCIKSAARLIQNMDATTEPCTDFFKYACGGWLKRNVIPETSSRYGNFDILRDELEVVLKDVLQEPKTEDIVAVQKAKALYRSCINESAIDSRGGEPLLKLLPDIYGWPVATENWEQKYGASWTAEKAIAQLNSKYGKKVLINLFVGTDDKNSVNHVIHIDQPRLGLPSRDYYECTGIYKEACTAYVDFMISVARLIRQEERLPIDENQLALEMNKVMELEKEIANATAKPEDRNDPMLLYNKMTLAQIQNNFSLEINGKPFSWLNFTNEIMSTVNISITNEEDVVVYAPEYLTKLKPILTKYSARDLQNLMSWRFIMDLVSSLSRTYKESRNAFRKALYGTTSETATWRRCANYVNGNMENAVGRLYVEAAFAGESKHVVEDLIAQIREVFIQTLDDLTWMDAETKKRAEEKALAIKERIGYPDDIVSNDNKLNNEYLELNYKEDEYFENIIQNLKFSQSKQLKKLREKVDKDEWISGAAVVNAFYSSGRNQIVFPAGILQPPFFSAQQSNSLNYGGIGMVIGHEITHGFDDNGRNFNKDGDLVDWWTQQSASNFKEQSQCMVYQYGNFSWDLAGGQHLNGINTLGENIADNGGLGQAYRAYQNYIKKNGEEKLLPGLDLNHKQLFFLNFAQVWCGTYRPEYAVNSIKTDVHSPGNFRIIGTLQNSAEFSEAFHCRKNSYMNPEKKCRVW
In words: Selected enzyme assay. The class given is biochemical. How it is done:
as §1, §2

For the next series, the system named is plasma NE, DA and EPI. In words: Plasma catecholamines in beagle dogs, 2 mg/kg b.i.d. for 14.5 days. The class given is in vivo. The method, then:
A separate study was conducted in dogs to determine the effects of chronic administration of 2a on the plasma DA/NE ratio. Animals were randomized to receive, orally, either placebo (empty capsule) or 2a (2 mg/kg, b.i.d) for 14.5 days. Daily blood samples were drawn, 6 h after the first dose, for the measurement of plasma concentrations of DA and NE. The samples were collected in tubes containing heparin and glutathione, centrifuged at […] and stored at −70° C. until analysis.
Male Beagle dogs (Marshall farms, North Rose, N.Y.) weighing between 9-16 kg were used in the study. The animals were allowed water ad libitum and given food once daily at ˜10.00 AM. Animals were randomly assigned to one of the following treatment groups (n=8/group): placebo (empty capsule), or nepicastat at 2 mg/kg b.i.d (4 mg/kg/day). Each animal received 2 doses daily, morning and afternoon (8-10 hours apart). Daily blood samples (10 ml) were drawn 6 h after the AM dose for measurement of plasma levels of nepicastat and catecholamines. The blood was collected in tubes containing heparin and glutathione and centrifuged at −4° C. within 1 h of collection. The plasma was separated and divided into two samples, one for the measurement of plasma catecholamines and the other for analysis of nepicastat.
Plasma NE, DA and EPI were anaylysed by HPLC using electrochemical detection. Plasma concentration of nepicastat was determined by HPLC using electrochemical detection.
The BQL (below quantitation limit) in the DA concentration of dog 1 at day 10 was set to 0; ln (0) was set to missing. The analysis was performed using a mixed model (using PROC MIXED) with the day and treatment categorical variables being fixed and the dog within treatment being a random factor. For the fixed effects, the interaction between the day and the treatment was included, since the difference between the drug and placebo groups varies from day to day. Contrasts were calculated using the CONTRAST statement, which correctly takes into account the error terms for each particular contrast. In particular, the contrasts comparing the […] uses the dog mean square for its error term, while the comparisons used to establish steady state are all within dog comparisons, and require the error mean square.
The time period of steady state was calculated using the Helmert transformation (cf. SAS PROC GLM manual). These transformations compare each treatment mean with the average of the treatment means of the time points following. The steady state period is defined to start at the first time point following the maximum time at which the Helmert contrast is statistically significant. However, since this method can fail to detect a smoothly changing process, as appears might be the case here, the slope of the analyte concentration during the steady state period also was calculated. The slope during the steady state period was calculated for each dog individually, yielding one slope per animal. Univariate statistics on the slopes were then calculated, with Normal theory confidence intervals built on the mean slope, and the hypothesis of slope equalling zero was tested, and its Normal theory p-value was calculated. This slope analysis was used as the basis for determining whether the steady state period was a period of changing concentration.

For the molecule `Cl.NCc1c[nH]c(=S)n1[C@H]1CCc2c(F)cc(F)cc2C1` [nepicastat, (S)-5-Aminomethyl-1-(5,7-difluoro-1,2,3,4-tetrahydronaphth-2-yl)-2,3-dihydro-2-thioxo-1H-imidazole hydrochloride], in series [1], the “dose with significant increase in dopamine/norepinephrine ratio, left ventricle” value came out at 1.0 mg/kg and the “dose with significant increase in dopamine/norepinephrine ratio, mesenteric artery” value is recorded as 3.0 mg/kg. Also, in series [1] (only at this dose), the “dose with significant increase in dopamine/norepinephrine ratio, cerebral cortex” value was determined as 100 mg/kg. For the same molecule, the “renal blood flow, urine production, urinary sodium and potassium excretion” value in series [2] is “did not lower renal blood flow or alter urine production or urinary excretion of sodium or potassium”. Moreover, the mean arterial pressure result in series [2] (3 hour period) is “decreased mean arterial pressure”. Also, in the series on locomotor activity (1 mg/kg/day), the “activity monitoring compared to placebo” value is “slower than placebo treatment”. In the series with locomotor activity (4 and 10 mg/kg/day, 10 to 90 minutes post-dosing), the “activity monitoring compared to placebo” value is recorded as “no difference”. Also, the IC50 in series [3] was above 10 µM. At protein kinase C, this molecule yielded an IC50 above 10 µM. Further, the IC50 against neutral endopeptidase was above 10 µM. Also, in the series with plasma NE, DA and EPI (2 mg/kg b.i.d.), the “day of peak decrease in plasma EPI” value worked out at 8 days, the “day of peak decrease in plasma NE” value amounted to 6 days, the “day of peak increase in plasma DA” value stood at 7 days and the “day of peak increase in plasma DA/NE ratio” value came to 6 days. Also, in the series with plasma NE, DA and EPI (2 mg/kg b.i.d.), the “decrease in plasma EPI vs placebo” value worked out at 1.91 fold, the “decrease in plasma NE vs placebo” value came out at 2.1 fold, the “increase in plasma DA vs placebo” value worked out at 7.5 fold and the “increase in plasma DA/NE ratio vs placebo” value came out at 13.6 fold. In addition, in the series on plasma NE, DA and EPI (2 mg/kg b.i.d.), the “time to steady-state of effect on plasma DA” value is around 8 days post-dose, the “time to steady-state of effect on plasma EPI” value was around 6 days post-dose and the “time to steady-state of effect on plasma NE” value was “approximately 4 days post-dose”. Also, in the series with plasma NE, DA and EPI (2 mg/kg b.i.d. po, day-6 of dosing), the “peak reduction in plasma concentration of noradrenaline” value was 52%. For the same molecule, the “peak increase in plasma concentration of dopamine” value in the series with plasma NE, DA and EPI (2 mg/kg b.i.d. po, day-7 of dosing) was determined as 646%. Also, the “time to peak effect on plasma DA/NE ratio” value with plasma NE, DA and EPI (2 mg/kg b.i.d., 14.5 day treatment) lay in the range of 6 to 7 days.
